Laboratory results as given in publication PMC7933930, “Development of a small molecule that corrects misfolding and increases secretion of Z α1‐antitrypsin” (EMBO Molecular Medicine, 2021).

Key:
[1] = test system: Z α1‐antitrypsin in CHO‐K1 Tet‐On cells; experiment: Pulse‐chase of Z α1‐antitrypsin in CHO‐K1 Tet‐On cells; format: cell-based; conditions: 10 μM GSK716
Protocol: Figure 2 GSK716 inhibits polymerisation of Z α1‐antitrypsin in cell models of disease • A GSK716 was added to CHO‐TET‐ON‐Z‐A1AT cells (Ordóñez et al, 2013) with simultaneous induction of Z α1‐antitrypsin expression using doxycycline, and polymer load was quantified with the 2C1 monoclonal antibody that is specific to pathological polymers of α1‐antitrypsin (Miranda et al, 2010). […] Data were normalised to vehicle and a control compound from the GSK716 series at saturating concentration. […] It induced an approximately threefold increase in secreted levels of Z α1‐antitrypsin compared with vehicle control. This was apparent even after polymers had been allowed to form. Scale bar: 100 µm. Data presented as mean ± SD, n = 8 (secretion) and n = 6 (polymer inhibition). • E CHO tetracycline‐inducible cells expressing Z α1‐antitrypsin were induced with 0.5 μg/ml doxycycline for 48 h and treated with 10 μM GSK716. […] For every time point, NP‐40‐soluble and NP‐40‐insoluble fractions were separated and immunoprecipitated with the 2C1 mAb and resolved by 4–12% w/v SDS–PAGE and α1‐antitrypsin detected by immunoblotting. […] Cell viability was measured by Cell Counting Kit‐8. […] Samples were resolved by 4–12% w/v acrylamide SDS–PAGE and detected by autoradiography. • H The graphs show the effect of GSK716 on intracellular and extracellular Z α1‐antitrypsin (mean ± SEM, n = 2). […]

Z α1‐antitrypsin = Z α1‐antitrypsin (Homo sapiens, UniProt P01009, E366K); experiment: Stoichiometry of inhibition against chymotrypsin, Z α1‐antitrypsin; format: biochemical; parameters: purified from the plasma of Z α1‐antitrypsin homozygotes; from tissue; host or cells: human plasma of Z α1-antitrypsin homozygotes; conditions: Z α1‐antitrypsin pre‐incubated with GSK716 (50µM), read-out: loss of protease inhibitory activity
Z α1‐antitrypsin, sequence (P01009 25-418 E366K): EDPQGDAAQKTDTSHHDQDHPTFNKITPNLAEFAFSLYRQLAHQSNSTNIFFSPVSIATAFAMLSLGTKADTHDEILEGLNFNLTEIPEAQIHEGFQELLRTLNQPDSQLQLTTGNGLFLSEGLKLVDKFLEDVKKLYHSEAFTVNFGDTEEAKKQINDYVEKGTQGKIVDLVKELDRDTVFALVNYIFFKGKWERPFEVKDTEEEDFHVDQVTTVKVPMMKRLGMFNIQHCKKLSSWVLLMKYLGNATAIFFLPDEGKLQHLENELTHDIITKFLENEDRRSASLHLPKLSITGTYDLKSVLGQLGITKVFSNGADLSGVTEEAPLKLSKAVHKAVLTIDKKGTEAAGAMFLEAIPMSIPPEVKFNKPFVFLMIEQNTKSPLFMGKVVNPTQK
Protocol: Mutations that interfere with the opening of β‐sheet A or that perturb its interaction with the N‐terminal portion of the reactive centre loop alter the ability of serpins to inhibit target proteases (Hood et al, 1994; Irving et al, 2014). The stoichiometry of inhibition (SI) was determined for M α1‐antitrypsin and Z α1‐antitrypsin in discontinuous experiments against a model target protease, chymotrypsin. The pre‐incubation of both variants with GSK716 led to a > 98% loss of protease inhibitory activity (Fig 5A).
Figure 5 The effect of GSK716 on serpin inhibitory activity • α1‐Antitrypsin was incubated at varying molar ratios with the model protease bovine α‐chymotrypsin, and the residual protease activity determined. […] The position of covalent α1‐antitrypsin‐chymotrypsin complex (cpx), native (nat) and cleaved (clv) is shown. • The inhibitory activity of α1‐antichymotrypsin against chymotrypsin (ach + chym), neuroserpin against trypsin (neus + tryp), and antithrombin against thrombin (atiii + thrombin) was determined in the presence and absence of GSK716. […]
The native state stability of α1‐antitrypsin on addition of compounds was investigated by thermal denaturation in the presence of a 5X concentration of SYPRO Orange dye solution (Life Technologies) (Nettleship et al, 2008). Resistance to heat‐induced polymerisation was determined using an end‐point constant‐temperature assay. […]

α1 nicotinic AChR = α1 nicotinic AChR (Homo sapiens, UniProt P02708); experiment: Off‐target panel: α1 nicotinic AChR; format: cell-based
α1 nicotinic AChR, sequence (P02708 21-457): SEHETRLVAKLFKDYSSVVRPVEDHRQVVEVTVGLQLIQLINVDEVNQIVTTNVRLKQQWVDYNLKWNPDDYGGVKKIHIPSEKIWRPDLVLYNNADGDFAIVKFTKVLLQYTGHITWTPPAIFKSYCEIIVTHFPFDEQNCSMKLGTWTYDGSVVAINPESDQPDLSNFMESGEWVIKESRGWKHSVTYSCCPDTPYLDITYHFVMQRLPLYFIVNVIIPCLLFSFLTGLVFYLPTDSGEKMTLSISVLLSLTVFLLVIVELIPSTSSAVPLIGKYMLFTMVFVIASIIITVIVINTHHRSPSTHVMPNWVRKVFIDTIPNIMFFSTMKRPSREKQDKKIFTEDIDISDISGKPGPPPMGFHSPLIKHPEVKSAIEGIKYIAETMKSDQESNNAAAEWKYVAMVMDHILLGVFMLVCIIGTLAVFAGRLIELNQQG
α1 nicotinic AChR, sequence (P11230 24-501 partner): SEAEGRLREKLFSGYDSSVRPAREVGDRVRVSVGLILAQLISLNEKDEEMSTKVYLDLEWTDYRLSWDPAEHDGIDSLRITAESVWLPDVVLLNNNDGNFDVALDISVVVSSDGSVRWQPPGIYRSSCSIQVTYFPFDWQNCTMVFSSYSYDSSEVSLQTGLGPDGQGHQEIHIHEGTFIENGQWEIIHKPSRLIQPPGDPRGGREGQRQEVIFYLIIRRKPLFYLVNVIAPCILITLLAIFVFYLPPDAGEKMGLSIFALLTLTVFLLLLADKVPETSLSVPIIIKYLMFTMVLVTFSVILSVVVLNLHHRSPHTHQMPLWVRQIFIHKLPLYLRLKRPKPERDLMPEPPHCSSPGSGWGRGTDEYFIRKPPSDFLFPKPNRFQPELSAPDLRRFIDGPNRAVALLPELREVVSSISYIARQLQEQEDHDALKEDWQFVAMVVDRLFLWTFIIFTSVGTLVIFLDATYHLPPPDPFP
α1 nicotinic AChR, sequence (Q07001 22-517 partner): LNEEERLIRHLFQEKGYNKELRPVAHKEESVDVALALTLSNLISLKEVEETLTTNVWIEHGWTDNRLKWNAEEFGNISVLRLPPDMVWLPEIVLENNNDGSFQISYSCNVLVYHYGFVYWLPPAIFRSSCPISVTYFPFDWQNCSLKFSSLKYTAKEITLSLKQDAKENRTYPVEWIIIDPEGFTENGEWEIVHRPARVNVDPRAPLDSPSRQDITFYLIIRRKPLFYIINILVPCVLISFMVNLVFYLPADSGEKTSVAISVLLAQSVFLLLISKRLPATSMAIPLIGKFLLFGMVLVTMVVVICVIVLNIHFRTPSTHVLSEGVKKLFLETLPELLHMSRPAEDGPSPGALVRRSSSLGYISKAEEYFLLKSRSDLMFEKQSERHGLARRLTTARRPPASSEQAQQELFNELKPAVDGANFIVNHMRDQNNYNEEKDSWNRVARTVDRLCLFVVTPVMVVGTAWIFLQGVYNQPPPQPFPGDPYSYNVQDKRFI
Protocol: (§1) GSK716 selectivity and PK properties were profiled in order to investigate the suitability of GSK716 for progression into in vivo studies and the potential for taking it forward as a clinical candidate for testing in humans. Since GSK716 results in loss of inhibitory activity of α1‐antitrypsin, the effect of the compound was assessed on other closely related serpins. […] Furthermore, there were no off‐target effects in a panel of assays considered predictive of known safety liabilities that precluded further development of GSK716 (Table EV1).

NaV1.5 = NaV1.5 (Homo sapiens, UniProt Q14524); experiment: Off‐target panel: NaV1.5 (IonWorks); format: cell-based
NaV1.5, sequence (Q14524 whole entry): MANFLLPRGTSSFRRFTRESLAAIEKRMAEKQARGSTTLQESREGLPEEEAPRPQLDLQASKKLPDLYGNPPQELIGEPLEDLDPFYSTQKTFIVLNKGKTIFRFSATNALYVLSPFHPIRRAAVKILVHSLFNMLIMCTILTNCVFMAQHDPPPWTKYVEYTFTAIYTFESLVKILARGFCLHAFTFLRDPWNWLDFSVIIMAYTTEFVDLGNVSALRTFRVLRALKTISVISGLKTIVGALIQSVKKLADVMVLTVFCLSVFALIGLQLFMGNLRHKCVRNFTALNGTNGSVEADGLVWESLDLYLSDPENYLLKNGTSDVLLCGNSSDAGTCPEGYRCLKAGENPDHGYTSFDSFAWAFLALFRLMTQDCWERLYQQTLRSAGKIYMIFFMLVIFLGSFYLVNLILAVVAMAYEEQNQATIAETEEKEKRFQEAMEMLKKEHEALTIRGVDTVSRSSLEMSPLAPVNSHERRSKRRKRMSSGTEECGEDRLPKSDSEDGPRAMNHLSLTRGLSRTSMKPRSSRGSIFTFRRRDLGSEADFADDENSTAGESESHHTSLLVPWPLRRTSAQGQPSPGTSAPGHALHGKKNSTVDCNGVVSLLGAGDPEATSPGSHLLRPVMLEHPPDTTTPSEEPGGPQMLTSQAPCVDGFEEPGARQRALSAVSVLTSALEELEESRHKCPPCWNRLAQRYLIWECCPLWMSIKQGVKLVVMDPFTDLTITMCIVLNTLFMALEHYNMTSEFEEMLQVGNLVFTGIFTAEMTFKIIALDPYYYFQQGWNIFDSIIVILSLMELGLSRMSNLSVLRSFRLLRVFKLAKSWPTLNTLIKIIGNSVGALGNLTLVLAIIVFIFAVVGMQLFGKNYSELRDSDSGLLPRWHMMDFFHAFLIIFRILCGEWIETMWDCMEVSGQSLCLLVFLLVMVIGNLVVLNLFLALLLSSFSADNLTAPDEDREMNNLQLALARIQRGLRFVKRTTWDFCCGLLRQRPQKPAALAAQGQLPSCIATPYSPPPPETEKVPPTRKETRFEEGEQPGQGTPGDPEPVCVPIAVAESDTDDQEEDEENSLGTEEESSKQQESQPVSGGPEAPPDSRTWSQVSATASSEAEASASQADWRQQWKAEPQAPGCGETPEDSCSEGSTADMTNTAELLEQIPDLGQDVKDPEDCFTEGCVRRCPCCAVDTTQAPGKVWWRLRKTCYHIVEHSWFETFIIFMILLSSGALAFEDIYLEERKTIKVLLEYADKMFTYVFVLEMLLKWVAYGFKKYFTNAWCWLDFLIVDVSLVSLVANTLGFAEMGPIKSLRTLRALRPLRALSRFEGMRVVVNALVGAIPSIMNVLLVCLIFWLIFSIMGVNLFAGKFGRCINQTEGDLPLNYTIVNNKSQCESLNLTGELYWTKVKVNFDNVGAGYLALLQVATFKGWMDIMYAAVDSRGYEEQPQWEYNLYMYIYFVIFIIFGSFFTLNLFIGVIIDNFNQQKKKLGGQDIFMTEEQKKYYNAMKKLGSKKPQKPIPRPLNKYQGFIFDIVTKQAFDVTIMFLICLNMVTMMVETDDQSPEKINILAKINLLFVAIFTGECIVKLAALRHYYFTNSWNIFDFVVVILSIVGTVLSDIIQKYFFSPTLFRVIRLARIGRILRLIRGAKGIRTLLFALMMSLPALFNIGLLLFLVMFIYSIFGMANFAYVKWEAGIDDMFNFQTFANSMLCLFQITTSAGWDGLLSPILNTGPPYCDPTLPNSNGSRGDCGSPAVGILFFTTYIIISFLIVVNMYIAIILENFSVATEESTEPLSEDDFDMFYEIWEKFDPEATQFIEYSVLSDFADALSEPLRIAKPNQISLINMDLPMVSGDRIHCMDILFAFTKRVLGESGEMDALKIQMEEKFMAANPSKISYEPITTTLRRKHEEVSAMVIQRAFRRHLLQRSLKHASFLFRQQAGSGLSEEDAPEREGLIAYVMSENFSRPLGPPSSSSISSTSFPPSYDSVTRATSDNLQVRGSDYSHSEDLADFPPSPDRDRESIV
Protocol: as §1

Structure (SMILES): CCC[C@@H](NC(=O)c1cccc2c1CC(=O)N2)[C@@H](O)c1cccc(F)c1C [GSK716]
- intracellular polymers, clearance and secretion in pulse‐chase [1]: abolished intracellular polymers
- inhibition at 50 µM (Z α1‐antitrypsin): > 98%
- EC50 (α1 nicotinic AChR): > 50.1 µM
- IC50 (α1 nicotinic AChR): 31.6 µM
- IC50 (NaV1.5): 79.4 µM
